Test results published in US20130266605A1, “PEPTIDE INHIBITORS OF CD40L SIGNALING AND USES THEREFOR” (PHYLOGICA LIMITED, priority 2010, published 2013).
Like-named read-outs stand apart in the source and are kept apart here. Blank lines part the entries; values can stand above or below the molecule they belong to. Positions of bridges follow the written chain, without caps; N, C: chain ends. Non-standard residues stand in square brackets, D forms with d. Residues, ends and D or L forms follow the SMILES beside them. Chains are numbered I, II in the order given. No end group written: not given here. AEEA = NCCOCCOCC(=O)O

Assays:
CD40L-CD40 interaction = target: T1, CD40L-CD40 interaction (Homo sapiens, UniProt P29965); test: Chemiluminescent proximity assay (Alphascreen); type: binding; conditions: for inhibition of the interaction between CD40L and CD40: in words, Alphascreen proximity assay
T1 sequence (P29965 113-261 limits assumed): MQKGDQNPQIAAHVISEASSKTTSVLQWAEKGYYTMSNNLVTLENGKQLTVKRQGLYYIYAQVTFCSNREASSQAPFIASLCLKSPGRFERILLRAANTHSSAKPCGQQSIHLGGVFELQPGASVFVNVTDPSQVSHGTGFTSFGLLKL
Method: In one example, the Alphascreen assay (PerkinElmer) was employed according to the manufacturer's instructions.
Homodimers and heterodimers were also assayed by chemiluminescent proximity assay for their ability to inhibit CD40L-CD40 interaction.

[1] = target: CD40L-induced CD86 expression on primary B-cells (UniProt P29965); test: Inhibition of CD40L-induced CD86 expression on primary B-cells (FACS); conditions: for inhibition of CD40L-induced CD86 expression on primary B-cells: in words
Sequence of CD40L-induced CD86 expression on primary B-cells (P29965 whole entry): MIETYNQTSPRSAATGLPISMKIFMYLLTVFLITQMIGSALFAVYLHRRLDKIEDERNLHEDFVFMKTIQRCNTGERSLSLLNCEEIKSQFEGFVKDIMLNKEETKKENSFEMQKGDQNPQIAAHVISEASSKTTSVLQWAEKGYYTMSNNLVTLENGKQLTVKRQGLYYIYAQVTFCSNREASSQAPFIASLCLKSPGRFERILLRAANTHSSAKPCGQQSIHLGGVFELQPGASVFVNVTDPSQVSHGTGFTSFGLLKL
Sequence of CD40L-induced CD86 expression on primary B-cells (P25942 21-277 partner): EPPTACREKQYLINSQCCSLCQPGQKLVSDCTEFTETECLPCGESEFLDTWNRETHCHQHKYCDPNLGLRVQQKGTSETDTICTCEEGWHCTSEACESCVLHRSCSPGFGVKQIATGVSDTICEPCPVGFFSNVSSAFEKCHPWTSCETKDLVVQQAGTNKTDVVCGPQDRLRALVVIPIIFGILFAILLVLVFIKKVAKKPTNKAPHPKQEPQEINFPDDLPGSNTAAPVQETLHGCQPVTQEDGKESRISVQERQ
Method: In one example, the ability of a peptide, analog or derivative of the invention to inhibit or reduce or delay expression of CD86 on primary B-cells was determined in the presence and absence of the peptides, analogs and derivatives of the invention. In particular, CD86 expression was determined by FACS.
As a control in these assays, LPS-induced expression of CD86 mediated by the Toll-like receptors TLR 2/4, and TNFα-induced cytoxicity, were also assayed to exclude effects mediated by ligands other than CD40L.

CD40 ligand = target: T2, CD40 ligand (UniProt P29965 108-261, limits assumed); test: Alphascreen, unmodified peptide, inhibition of CD40L/CD40-Fc
T2 construct: Used immobilised, soluble, or biotinylated on streptavidin beads; also called CD154; soluble CD40L
T2 sequence (looked up): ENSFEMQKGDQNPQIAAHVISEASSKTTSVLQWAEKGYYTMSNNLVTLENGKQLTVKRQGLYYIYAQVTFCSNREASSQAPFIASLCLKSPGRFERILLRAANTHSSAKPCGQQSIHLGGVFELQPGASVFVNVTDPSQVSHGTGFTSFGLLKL

[2] = PEGylated chiral (retro-inverted) analog, read-out: EC50(PEGylated) CD40L/CD40-Fc/BAF617
[3] = read-out: EC50 PEGylated peptide, PEGylated monomeric peptide

Molecule: I: H-C[AEEA]LLLFFFSPPFSIFSFSLTTLS / II: H-C[AEEA]HPFSIKNVFSIWNFFSVY (disulfide I:1-II:1) [Cys_M1_6S-Cys_M1_189S heterodimer]
inhibition of the interaction between CD40L and CD40 (CD40L-CD40 interaction; listed as 6-189 dimer): enhanced inhibition | inhibition of the interaction between CD40L and CD40 (CD40L-CD40 interaction; listed as 6-189 high purity dimer): inhibition | inhibition of CD40L-induced CD86 expression on primary B-cells [1]: enhanced inhibition

Molecule: FYLYDRRFSSYFRFLFFLNYRPP [CD40L M1_9rd]
EC50 (CD40L-CD40 interaction; [2]): 0.014 µM

Molecule: AQWWHHRFSFLGAIQFFERGAAD [CD40L M1_30rd]
EC50 (CD40L-CD40 interaction; [2]): 0.024 µM

Molecule: CC[C@@H](C)[C@@H](NC(=O)[C@@H](Cc1ccccc1)NC(=O)[C@@H](C)NC(=O)[C@H](NC(=O)[C@@H](CC(C)C)NC(=O)[C@H]1CCCN1C(=O)[C@@H](Cc1ccccc1)NC(=O)[C@@H](CCC(N)=O)NC(=O)[C@@H](Cc1ccc(O)cc1)NC(=O)[C@@H](CC(C)C)NC(=O)[C@@H](Cc1c[nH]cn1)NC(=O)[C@@H](CCCNC(=N)N)NC(=O)[C@@H](CS)NC(=O)[C@H](N)CCCNC(=N)N)C(C)C)C(=O)N[C@H](CO)C(=O)N[C@H](Cc1c[nH]c2ccccc12)C(=O)N[C@H](CCC(N)=O)C(=O)N[C@@H](C(=O)N1CCC[C@@H]1C(=O)N[C@H](Cc1ccccc1)C(=O)N[C@H](Cc1ccccc1)C(=O)N[C@H](Cc1c[nH]c2ccccc12)C(=O)NCC(=O)N[C@H](Cc1ccc(O)cc1)C(=O)N[C@H](CCCCN)C(=O)N[C@H](CC(C)C)C(=O)N[C@@H](C(=O)N[C@H](Cc1c[nH]cn1)C(=O)N[C@H](CO)C(=O)N[C@H](CCCNC(=N)N)C(=O)N[C@H](Cc1ccc(O)cc1)C(=O)N1CCC[C@@H]1C(=O)N[C@@H](C(=O)N[C@H](Cc1ccccc1)C(=O)N1CCC[C@@H]1C(=O)N[C@H](CC(C)C)C(=O)O)C(C)C)C(C)C)C(C)C [CD40L M1_18rd] (H-[dR][dC][dR][dH][dL][dY][dQ][dF][dP][dL][dV][dA][dF][dI][dS][dW][dQ][dV][dP][dF][dF][dW]G[dY][dK][dL][dV][dH][dS][dR][dY][dP][dV][dF][dP][dL]-OH; N-terminus and C-terminus assumed)
inhibition of CD40L-induced CD86 expression on primary B-cells [1]: enhanced inhibition

Molecule: I: H-C[AEEA]PPRYNLFFLFRFYSSFRRDYLYF / II: H-C[AEEA]HPFSIKNVFSIWNFFSVY (disulfide I:1-II:1) [Cys_M1_6S-Cys_M1_9S heterodimer]
inhibition of the interaction between CD40L and CD40 (CD40L-CD40 interaction; listed as 6-9 dimer): enhanced inhibition | inhibition of the interaction between CD40L and CD40 (CD40L-CD40 interaction; listed as 6-9 high purity dimer): inhibition | inhibition of CD40L-induced CD86 expression on primary B-cells [1]: enhanced inhibition

Molecule: YVSFFNWISFVNKISFPH [CD40L M1_6rd]
EC50 (CD40L-CD40 interaction; [2]): 0.02 µM

Molecule: CC[C@H](C)[C@H](NC(=O)[C@H](CS)NC(=O)[C@H](Cc1ccccc1)NC(=O)[C@@H](NC(=O)[C@H](CC(N)=O)NC(=O)[C@H](CCCCN)NC(=O)[C@@H](NC(=O)[C@H](CO)NC(=O)[C@H](Cc1ccccc1)NC(=O)[C@@H]1CCCN1C(=O)[C@@H](N)Cc1c[nH]cn1)[C@@H](C)CC)C(C)C)C(=O)N[C@@H](Cc1c[nH]c2ccccc12)C(=O)N[C@@H](CC(N)=O)C(=O)N[C@@H](Cc1ccccc1)C(=O)N[C@@H](Cc1ccccc1)C(=O)N[C@@H](CO)C(=O)N[C@H](C(=O)N[C@@H](Cc1ccc(O)cc1)C(=O)O)C(C)C [CD40L M1_6] (H-HPFSIKNVFCIWNFFSVY-OH; N-terminus and C-terminus assumed)
inhibition of the interaction between CD40L and CD40 (CD40L-CD40 interaction): inhibition

Molecule: CC[C@H](C)[C@H](NC(=O)[C@H](CO)NC(=O)[C@H](Cc1c[nH]c2ccccc12)NC(=O)[C@H](CCC(N)=O)NC(=O)[C@@H](NC(=O)[C@@H]1CCCN1C(=O)[C@H](Cc1ccccc1)NC(=O)[C@H](Cc1ccccc1)NC(=O)[C@H](Cc1c[nH]c2ccccc12)NC(=O)CNC(=O)[C@H](Cc1ccc(O)cc1)NC(=O)[C@H](CCCCN)NC(=O)[C@H](CC(C)C)NC(=O)[C@@H](NC(=O)[C@H](Cc1c[nH]cn1)NC(=O)[C@H](CO)NC(=O)[C@H](CCCNC(=N)N)NC(=O)[C@H](Cc1ccc(O)cc1)NC(=O)[C@@H]1CCCN1C(=O)[C@@H](NC(=O)[C@H](Cc1ccccc1)NC(=O)[C@@H]1CCCN1C(=O)[C@@H](N)CC(C)C)C(C)C)C(C)C)C(C)C)C(=O)N[C@@H](Cc1ccccc1)C(=O)N[C@@H](C)C(=O)N[C@H](C(=O)N[C@@H](CC(C)C)C(=O)N1CCC[C@H]1C(=O)N[C@@H](Cc1ccccc1)C(=O)N[C@@H](CCC(N)=O)C(=O)N[C@@H](Cc1ccc(O)cc1)C(=O)N[C@@H](CC(C)C)C(=O)N[C@@H](Cc1c[nH]cn1)C(=O)N[C@@H](CCCNC(=N)N)C(=O)N[C@@H](CS)C(=O)N[C@@H](CCCNC(=N)N)C(=O)O)C(C)C [CD40L M1_18] (H-LPFVPYRSHVLKYGWFFPVQWSIFAVLPFQYLHRCR-OH; N-terminus and C-terminus assumed)
inhibition of CD40L-induced CD86 expression on primary B-cells [1]: concentration-dependent inhibition

B1: CD40L M1_42 (peptide)
peptide: HSFVLFGVNVPFNIIDFQMRVKC
notes: Base peptide
EC50 (CD40 ligand): 0.2 µM

The remaining lines, values ahead:

EC50 (CD40L-CD40 interaction; [2]): 0.568 µM
Molecule: RVWNSFWLHIGGRQVGSPVFLSYFRNRVWRP [CD40L M1_50rd]

EC50 (CD40L-CD40 interaction; [2]): 0.01 µM | EC50 [1, 3]: 0.47 µM
Molecule: VHSYYVWILQFYYKFRSYRWHYQIS [CD40L M1_82rd]

EC50 (CD40L-CD40 interaction; [2]): 0.016 µM
Molecule: SKVRMQFDIINFPVNVGFLVFSH [CD40L M1_42rd]

inhibition of the interaction between CD40L and CD40 (CD40L-CD40 interaction; listed as 6-6 dimer): enhanced inhibition | inhibition of the interaction between CD40L and CD40 (CD40L-CD40 interaction; listed as homodimer of the Phylomer peptide M1—6): inhibition | inhibition of CD40L-induced CD86 expression on primary B-cells [1]: enhanced inhibition
Molecule: CC[C@H](C)[C@H](NC(=O)[C@H](CO)NC(=O)[C@H](Cc1ccccc1)NC(=O)[C@@H](NC(=O)[C@H](CC(N)=O)NC(=O)[C@H](CCCCN)NC(=O)[C@@H](NC(=O)[C@H](CO)NC(=O)[C@H](Cc1ccccc1)NC(=O)[C@@H]1CCCN1C(=O)[C@H](Cc1c[nH]cn1)NC(=O)COCCOCCNC(=O)[C@@H](N)CSSC[C@H](N)C(=O)NCCOCCOCC(=O)N[C@@H](Cc1c[nH]cn1)C(=O)N1CCC[C@H]1C(=O)N[C@@H](Cc1ccccc1)C(=O)N[C@@H](CO)C(=O)N[C@H](C(=O)N[C@@H](CCCCN)C(=O)N[C@@H](CC(N)=O)C(=O)N[C@H](C(=O)N[C@@H](Cc1ccccc1)C(=O)N[C@@H](CO)C(=O)N[C@H](C(=O)N[C@@H](Cc1c[nH]c2ccccc12)C(=O)N[C@@H](CC(N)=O)C(=O)N[C@@H](Cc1ccccc1)C(=O)N[C@@H](Cc1ccccc1)C(=O)N[C@@H](CO)C(=O)N[C@H](C(=O)N[C@@H](Cc1ccc(O)cc1)C(=O)O)C(C)C)[C@@H](C)CC)C(C)C)[C@@H](C)CC)[C@@H](C)CC)C(C)C)C(=O)N[C@@H](Cc1c[nH]c2ccccc12)C(=O)N[C@@H](CC(N)=O)C(=O)N[C@@H](Cc1ccccc1)C(=O)N[C@@H](Cc1ccccc1)C(=O)N[C@@H](CO)C(=O)N[C@H](C(=O)N[C@@H](Cc1ccc(O)cc1)C(=O)O)C(C)C [Cys_M1_6S homodimer] (I: H-C[AEEA]HPFSIKNVFSIWNFFSVY-OH / II: H-C[AEEA]HPFSIKNVFSIWNFFSVY-OH; disulfide I:1-II:1; C-terminus assumed)

EC50 (CD40L-CD40 interaction; [2]): 0.012 µM | EC50 [1, 3]: 2 µM
Molecule: FHRMYVILQIIWFITPRWTFP [CD40L M7_206rd]

EC50 (CD40L-CD40 interaction; monomeric non-PEGylated (unmodified) base peptide; 50% reduction in control emission at 520-620 nm; read-out: EC50nmodified) CD40L/CD40-Fc/BAF617): 0.12 µM
Molecule: CC[C@H](C)[C@H](NC(=O)[C@H](CO)NC(=O)[C@H](Cc1ccccc1)NC(=O)[C@@H]1CCCN1C(=O)[C@@H]1CCCN1C(=O)[C@H](CO)NC(=O)[C@H](Cc1ccccc1)NC(=O)[C@H](Cc1ccccc1)NC(=O)[C@H](Cc1ccccc1)NC(=O)[C@H](CC(C)C)NC(=O)[C@H](CC(C)C)NC(=O)[C@@H](N)CC(C)C)C(=O)N[C@@H](Cc1ccccc1)C(=O)N[C@@H](CS)C(=O)N[C@@H](Cc1ccccc1)C(=O)N[C@@H](CO)C(=O)N[C@@H](CC(C)C)C(=O)N[C@H](C(=O)N[C@H](C(=O)N[C@@H](CC(C)C)C(=O)N[C@@H](CO)C(=O)O)[C@@H](C)O)[C@@H](C)O [CD40L M7_189] (H-LLLFFFSPPFSIFCFSLTTLS-OH)

EC50 (CD40 ligand): 0.12 µM
B2: CD40L M2_159 (peptide)
peptide: LLYVKVICFFCMLVQYNNFQTYK
notes: Base peptide

EC50 ([1]; read-out: EC50 value of CD40L induction of CD86 expression, absence of a peptidyl inhibitor): ~0.009 µM
B3: CD40L: CD40 ligand used to induce CD86 expression on primary B-cells (protein)
chain: T2 sequence (looked up)
